Measured values published in patent publication US6794387B2, “Pharmaceutically active compounds” (Pfizer Inc., priority 2001, dated 2004).

Tests used:
[1] = In vitro metabolism in human hepatic microsomal fractions (HLM half-life); assay type: in vitro ADME; settings: human liver microsomes, initial substrate concentration 1 μM, 37° C.
Method: In vitro metabolism experiments were carried out in the hepatic microsomal fractions from man. Transplant-quality human liver tissue was obtained from the International Institute for the Advancement of Medicine (Exton, Pa., USA). Microsomes were prepared according to the method described in Biochemical Pharmacology, […], 48, 2147-2156 and stored at −80° C. The concentrations of protein and cytochrome P450 were determined by standard methods described in Journal of Biological Chemistry, 1951, 193, 265-275 and Journal of Biological Chemistry, 1964, 239, 2370-2378.
Microsomal incubations (1.5 ml) were prepared containing 0.5 μM cytochrome P450, 200 mM phosphate buffer (pH 7.4), 0.1 M MgCl2, 0.1 M isocitric acid, 1 unit/ml isocitrate dehydrogenase and 20 mM β-NADP. […] The extracts were evaporated to dryness and analysed by LC-MS/MS (Hewlett Packard HP1100 binary pump, Hypersil HS100 C18, 5 cm by 4.6 mm internal diameter, 5 μm column using a mobile phase of 2 mM ammonium acetate in 90:10 methanol/water, aqueous portion adjusted to pH 4 with glacial acetic acid, and a flowrate of 1 ml/min). […] Disappearance rate constants (k) in human microsomal preparations were determined by linear regression of the log ratio (compound under study/internal standard) versus time. The in vitro human microsomal half-lives were determined according to the equation t1/2=In 2/k. […]

[2] = biological target: T1, cGMP PDE5 (human corp. cav.) (Homo sapiens, UniProt O76074); experiment: Phosphodiesterase (PDE) inhibitory activity, cGMP PDE5; assay type: biochemical; settings: enzyme from human corpus cavernosum
T1 construct: from tissue; host or cells: human corpus cavernosum
Method: Compounds of the present invention are potent and selective cGMP PDE5 inhibitors. In vitro PDE inhibitory activities against cyclic guanosine 3′,5′-monophosphate (cGMP) and cyclic adenosine 3′,5′-monophosphate (cAMP) phosphodiesterases were determined by measurement of their IC50 values (the concentration of compound required for 50% inhibition of enzyme activity).
The required PDE enzymes were isolated from a variety of sources, including human corpus cavernosum, human platelets, human cardiac ventricle, human skeletal muscle and human and canine retina, essentially by the method of W. J. Thompson and M. M. Appleman (Biochem., 1971, 10, 311). […]
Assays were performed either using a modification of the “batch” method of W. J. Thompson et al. (Biochem., 1979, 18, 5228) or using a scintillation proximity assay for the direct detection of AMP/GMP using a modification of the protocol described by Amersham plc under product code TRKQ7090/7100. […] Plates were re-sealed and shaken for 20 min, after which the beads were allowed to settle for 30 min in the dark and then counted on a TopCount plate reader (Packard, Meriden, Conn.). Radioactivity units were converted to % activity of an uninhibited control (100%), plotted against inhibitor concentration and inhibitor IC50 values obtained using the ‘Fit Curve’ Microsoft Excel extension or in-house equivalent.

## CCCc1nc(C)c2c(=O)[nH]c(-c3cc(S(=O)(=O)N4CCN(CC)CC4)ccc3OCC)nn12 [Comound A, 2-[2-ethoxy-5-(4-ethyl-piperazin-1-yl-1-sulphonyl)-phenyl]-5-methyl-7-propyl-3H-imidazo[5,1-f][1,2,4]triazin-4-one, reference compound]
[1]
  HLM t1/2: 4 min

## CCCCOc1ncc(C(C)=O)cc1-c1nn2c(CC)nc(C)c2c(=O)[nH]1 [Example 1, 2-(5-Acetyl-2-butoxy-3-pyridinyl)-7-ethyl-5-methylimidazo[5,1-f][1,2,4]triazin-4(3H)-one]
[1]; pH 7.4, read-out: HLM t1/2
  half-life at 1 μM: 21 min
[2]
  IC50: 1.34 nM

## CCCCOc1ncc(C(C)=O)cc1-c1nn2c(CC)nc(CCC)c2c(=O)[nH]1 [Example 2, 2-(5-Acetyl-2-butoxy-3-pyridinyl)-7-ethyl-5-propylimidazo[5,1-f][1,2,4]triazin-4(3H)-one]
[2]
  IC50: 1.96 nM
